A short description of data set [1]: Bioavailability test on rats. Particulars: rat, in vivo. The protocol: The AUCs, in the time 0-3 hours, for betahistine fumarate and betahistine dihydrochloride evidence no significant differences (8.2 vs 7.6 h.µg/ml, respectively).
Data set [2] in a line: pH of the administered treatment. Particulars: treatment as administered in the gastric erosion test. The class given is physicochemical.
The test system of another data set is gastric mucosa. As to the kind of experiment: Effect on gastric erosions (Adami index). Type of data set: in vivo. Particulars: for N^o GASTRIC EROSIONS / SEVERITY: Adami index. The protocol:
A comparison test between betahistine hydrochloride and betahistine fumarate was carried out, evaluating the toxicity (LD₅₀) and the effect on gastric erosions, at equimolar doses.
Admnistration volume = 15 ml/kg Evaluation of the stomach conditions = 1h after administration according to Adami index.

A short description of a further data set: Solubility. The class given is physicochemical.
A short description of data set [3]: Partition coefficient octanol/buffer. The class given is physicochemical. Particulars: for logD: octanol/buffer, pH 9, octanol/buffer pH = 9.0.
Setting [4] is: 20 mmoles/kg, administration volume 15 ml/kg, 1h after administration, dihydrochloride.
[5] abbreviates: 20 mmoles/kg, administration volume 15 ml/kg, 1h after administration.

This is an account of results in patent publication EP0397025B1, “[2-(2-pyridyl)ethyl]-methylamine salts” (PRODOTTI FORMENTI S.r.l., priority 1989, dated 1990).

Structures are written as SMILES. Where a name gives a salt, the structure may show the parent alone. Read-outs that look alike come from different tables or passages of the source.

With `CNCCc1ccccn1` [BETAHISTINE DIHYDROCHLORIDE, betahistine dihydrochloride, reference compound], in data set [1], the AUC was 7600 ng·h/mL and the bioavailability entry is reported as “substantially the same bioavailability”. Moreover, in data set [2] (dihydrochloride), the pH entry was “BETAHISTINE DIHYDROCHLORIDE pH=1.6”. In the data set with gastric mucosa (setting [4]), the “N^o GASTRIC EROSIONS” value came out at 7.92±1.26, the SEVERITY is 3.85±0.35 and the “% ANIMALS WITH EROSIONS: serious erosions” value turned out to be 92.32% serious erosions.
On to `CNCCc1ccccn1` [BETAHISTINE FUMARATE, Betahistine Fumarate], for which the “plasmatic curve peak after the administration” value in data set [1] stood at 15 min. Further, in data set [1] (rats, 0-3 hours, read-out: AUCs, in the time 0-3 hours), the AUC at 3 h stood at 8200 ng·h/mL. In addition, the pH entry in data set [2] is “BETAHISTINE FUMARATE pH = 4.19”. For the same compound, the Solubility in acetone result in the data set “Solubility” (acetone) is on record as “poorly soluble”. Moreover, in the data set “Solubility” (acid aqueous solutions), the “Solubility in acid aqueous solutions” value is reported as “soluble”. For the same compound, the Solubility in chloroform entry in the data set “Solubility” (chloroform) is on record as “almost unsoluble”. In addition, the Solubility in ethanol entry in the data set “Solubility” (ethanol) is reported as “soluble”. For the same compound, the Solubility in methanol result in “Solubility” (methanol) is reported as “soluble”. The Solubility in water entry in the data set “Solubility” (water) was “soluble”. For the same compound, the logD in data set [3] (read-out: Partition coefficient P (converted)) is -0.904. In data set [3] (read-out: logP), the logD turned out to be 0.904. For the same compound, in the data set on gastric mucosa (setting [5]), the “% ANIMALS WITH EROSIONS: diffused bleeding” value amounted to 20%, the “% ANIMALS WITH EROSIONS: serious erosions” value is reported as 10%, the “N^o GASTRIC EROSIONS” value was 0.3±0.3 and the SEVERITY was 0.6±0.31. The “effect on gastric erosions” value with gastric mucosa (equimolar doses, compared with the hydrochloride) is “markedly improved”.
As to `CNCCc1ccccn1` [BETAHISTINE, [2-(2-Pyridyl)ethyl]-methylamine], in data set [3] (octanol/buffer pH = 9.0), the “Partition coefficient P” value worked out at 0.147.
